In patent US6528494B2 (priority 1996, dated 2003):

How the values were obtained:
Assay type in all cases: cell-based
adenosine 1 receptor = molecular target: T1, adenosine 1 receptor (Homo sapiens, UniProt P30542); assay: Agonist activity against adenosine 1 receptor (CHO cells, forskolin-enhanced cAMP/SPAP reporter); settings: CHO cells transfected with human receptor; forskolin-enhanced cAMP via SPAP; mean of all the versions tested
T1 sequence (P30542 1-326): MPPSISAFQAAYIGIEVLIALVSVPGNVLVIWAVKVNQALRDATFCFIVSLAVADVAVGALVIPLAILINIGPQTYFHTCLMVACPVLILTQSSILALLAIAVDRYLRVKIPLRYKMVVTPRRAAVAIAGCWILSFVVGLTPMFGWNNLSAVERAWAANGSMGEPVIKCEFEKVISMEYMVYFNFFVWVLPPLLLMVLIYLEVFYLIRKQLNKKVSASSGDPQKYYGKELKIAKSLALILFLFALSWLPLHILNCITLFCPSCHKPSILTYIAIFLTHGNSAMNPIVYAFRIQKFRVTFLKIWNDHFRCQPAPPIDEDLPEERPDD
Procedure: (§1) (1) Agonist activity against adenosine 2a, adenosine 1 and adenosine 3 receptor subtypes.
(§2) The effect of test compounds was determined by their effects on basal levels of cAMP (A2a) or on forskolin-enhanced cAMP (A1 and A3) as reflected by changes in levels of SPAP.

adenosine 2a receptor = adenosine 2a receptor (Homo sapiens, UniProt P29274); assay: Agonist activity against adenosine 2a receptor (CHO cells, cAMP/SPAP reporter); settings: CHO cells transfected with human receptor; basal cAMP via SPAP; mean of all the versions tested
Procedure: as §1, §2

adenosine 3 receptor = molecular target: T2, adenosine 3 receptor (Homo sapiens, UniProt P0DMS8); assay: Agonist activity against adenosine 3 receptor (CHO cells, forskolin-enhanced cAMP/SPAP reporter); settings: CHO cells transfected with human receptor; forskolin-enhanced cAMP via SPAP; mean of all the versions tested
T2 sequence (P0DMS8 1-318): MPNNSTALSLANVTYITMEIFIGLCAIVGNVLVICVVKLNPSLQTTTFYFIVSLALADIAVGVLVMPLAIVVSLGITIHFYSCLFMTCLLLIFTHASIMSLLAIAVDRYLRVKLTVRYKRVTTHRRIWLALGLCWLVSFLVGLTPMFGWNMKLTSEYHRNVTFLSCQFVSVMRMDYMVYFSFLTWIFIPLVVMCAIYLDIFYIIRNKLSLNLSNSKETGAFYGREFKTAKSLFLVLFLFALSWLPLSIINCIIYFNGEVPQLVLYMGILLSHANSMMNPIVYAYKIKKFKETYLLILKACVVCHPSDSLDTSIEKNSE
Procedure: as §1, §2

Sequence of adenosine 2a receptor (P29274 whole entry): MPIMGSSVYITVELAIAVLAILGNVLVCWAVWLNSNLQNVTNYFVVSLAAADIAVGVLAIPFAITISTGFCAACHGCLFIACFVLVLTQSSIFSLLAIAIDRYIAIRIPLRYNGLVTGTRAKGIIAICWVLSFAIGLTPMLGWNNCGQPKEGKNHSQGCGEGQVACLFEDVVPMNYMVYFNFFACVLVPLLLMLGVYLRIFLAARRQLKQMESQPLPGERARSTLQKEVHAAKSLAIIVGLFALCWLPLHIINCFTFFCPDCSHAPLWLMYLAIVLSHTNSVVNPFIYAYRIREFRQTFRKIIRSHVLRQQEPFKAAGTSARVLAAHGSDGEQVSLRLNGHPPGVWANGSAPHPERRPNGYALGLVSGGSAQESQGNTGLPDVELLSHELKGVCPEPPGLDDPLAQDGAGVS

Compound: CCn1nnc([C@H]2O[C@@H](n3cnc4c(NCc5cccc(I)c5)nc(NCCc5cn(C)cn5)nc43)[C@H](O)[C@@H]2O)n1 [Example 3, (2R,3S,4R,5R)-2-(2-Ethyl-2H-tetrazol-5-yl)-5-{6-(3-iodo-benzylamino)-2-[2-(1-methyl-1H-imidazol-4-yl)-ethylamino]-purin-9-yl}-tetrahydro-furan-3,4-diol]
- A1 EC50 as a ratio of that of NECA (adenosine 1 receptor): 230.8
- A2a EC50 as a ratio of that of NECA (adenosine 2a receptor): 0.84
- A3 EC50 as a ratio of that of NECA (adenosine 3 receptor): >116

Compound: CCn1nnc(C2OC(n3cnc4c(NCc5cccc(I)c5)nc(NC5CCNC5)nc43)C(O)C2O)n1 [Example 76, (2R,3S,4R,5R)-2-(2-Ethyl-2H-tetrazol-5-yl)-5-[6-(3-iodo-benzylamino)-2-(pyrrolidin-3S-ylamino)-purin-9-yl]-tetrahydro-furan-3,4-diol bis(Formate)]
- A1 EC50 as a ratio of that of NECA (adenosine 1 receptor): 215.30
- A2a EC50 as a ratio of that of NECA (adenosine 2a receptor): 2.93
- A3 EC50 as a ratio of that of NECA (adenosine 3 receptor): >155

Compound: CCn1nnc([C@H]2O[C@@H](n3cnc4c(NCC(c5ccccc5)c5ccccc5)nc(NC5CCOCC5)nc43)[C@H](O)[C@@H]2O)n1.O=C(O)C(F)(F)F [Example 113, (2R, 3R,4S, 5R)-2-[6-(2,2-Diphenyl-ethylamino)-2-(tetrahydro-pyran-4-ylamino)-purin-9-yl]-5-(2-ethyl-2H-tetrazol-5-yl)-tetrahydro-furan-3,4-diol Trifluoroacetate]
- A1 EC50 as a ratio of that of NECA (adenosine 1 receptor): 184.4
- A2a EC50 as a ratio of that of NECA (adenosine 2a receptor): 0.72
- A3 EC50 as a ratio of that of NECA (adenosine 3 receptor): >297.0

Compound: CCn1nnc([C@H]2O[C@@H](n3cnc4c(NCC(c5ccccc5)c5ccccc5)nc(NC5CCS(=O)(=O)C5)nc43)[C@H](O)[C@@H]2O)n1.O=C(O)C(F)(F)F.O=C(O)C(F)(F)F (stereo partly drawn) [Example 45]
- A1 EC50 as a ratio of that of NECA (adenosine 1 receptor): >1578.00
- A2a EC50 as a ratio of that of NECA (adenosine 2a receptor): 2.26
- A3 EC50 as a ratio of that of NECA (adenosine 3 receptor): >420

Compound: Cn1nnc(C2OC(n3cnc4c(NC(CO)Cc5ccccc5)nc(NCCN5CCCCC5)nc43)C(O)C2O)n1 [Example 107, (2R,3R,4S,5R)-2-[6-(1S-Hydroxymethyl-2-phenyl-ethylamino)-2-(2-piperidin-1-yl-ethylamino)-purin-9-yl]-5-(2-methyl-2H-tetrazol-5-yl)-tetrahydro-furan-3,4-diol bis(Formate)]
- A1 EC50 as a ratio of that of NECA (adenosine 1 receptor): 89.10
- A2a EC50 as a ratio of that of NECA (adenosine 2a receptor): 1.27
- A3 EC50 as a ratio of that of NECA (adenosine 3 receptor): >233

Compound: CCn1nnc(C2OC(n3cnc4c(NCc5cccc(I)c5)nc(NC5CCC(N)CC5)nc43)C(O)C2O)n1.O=CO.O=CO [Example 100, (2R,3R,4S,5R)-2-[2-(trans-4-Amino-cyclohexylamino)-6-(3-iodo-benzylamino)-purin-9-yl]-5-(2-ethyl-2H-tetrazol-5-yl)-tetrahydro-furan-3,4-diol Diformate]
- A1 EC50 as a ratio of that of NECA (adenosine 1 receptor): 292.70
- A2a EC50 as a ratio of that of NECA (adenosine 2a receptor): 5.71
- A3 EC50 as a ratio of that of NECA (adenosine 3 receptor): >127

Compound: CCn1nnc(C2OC(n3cnc4c(NCCC5CCCCC5)nc(NC5CCNC5)nc43)C(O)C2O)n1 [Example 72, (2R,3R,4S,5R)-2-[6-(2-Cyclohexyl-ethylamino)-2-(pyrrolidin-3R-ylamino)-purin-9-yl]-5-(2-ethyl-2H-tetrazol-5-yl)-tetrahydro-furan-3,4-diol Diformate]
- A1 EC50 as a ratio of that of NECA (adenosine 1 receptor): 848.50
- A2a EC50 as a ratio of that of NECA (adenosine 2a receptor): 6.48
- A3 EC50 as a ratio of that of NECA (adenosine 3 receptor): >158

Compound: CCn1nnc(C2OC(n3cnc4c(NCCC(C)(C)C)nc(NC(CO)Cc5ccccc5)nc43)C(O)C2O)n1 [Example 52, (2R,3R,4S,5R)-2-[6-(3,3-Dimethyl-butylamino)-2-(1S-hydroxymethyl-2-phenyl-ethylamino)-purin-9-yl]-5-(2-ethyl-2H-tetrazol-5-yl)-tetrahydro-furan-3,4-diol Acetate]
- A1 EC50 as a ratio of that of NECA (adenosine 1 receptor): 481.30
- A2a EC50 as a ratio of that of NECA (adenosine 2a receptor): 9.90
- A3 EC50 as a ratio of that of NECA (adenosine 3 receptor): >736

Compound: CCC(CC)Nc1nc(NC2CCC(N)CC2)nc2c1ncn2C1OC(c2nnn(C(C)C)n2)C(O)C1O.O=CO.O=CO [Example 67, (2R,3R,4S,5R)-2-[2-(trans-4-Amino-cyclohexylamino)-6-(1-ethyl-propylamino)-purin-9-yl]-5-(2-isopropyl-2H-tetrazol-5-yl)-tetrahydro-furan-3,4-diol bis(Formate)]
- A1 EC50 as a ratio of that of NECA (adenosine 1 receptor): 73.85
- A2a EC50 as a ratio of that of NECA (adenosine 2a receptor): 2.96
- A3 EC50 as a ratio of that of NECA (adenosine 3 receptor): >326

Compound: CC(=O)O.CCC(CC)Nc1nc(NCCc2cn(C)cn2)nc2c1ncn2[C@@H]1O[C@H](c2nnn(CC)n2)[C@@H](O)[C@H]1O [Example 6, (2R,3R,4S,5R)-2-{6-(1-Ethyl-propylamino)-2-[2-(1-methyl-1H-imidazol-4-yl)-ethylamino]-purin-9-yl}-5-(2-ethyl-2H-tetrazol-5-yl)-tetrahydro-furan-3,4-diol Acetate]
- A1 EC50 as a ratio of that of NECA (adenosine 1 receptor): 34.4
- A2a EC50 as a ratio of that of NECA (adenosine 2a receptor): 0.14
- A3 EC50 as a ratio of that of NECA (adenosine 3 receptor): >256

Compound: CCC(CC)Nc1nc(NC2CCCC2O)nc2c1ncn2C1OC(c2nnn(C)n2)C(O)C1O.O=CO.O=CO [Example 88, (2R,3R,4S,5R)-2-[6-(1-Ethyl-propylamino)-2-(2R-hydroxy-(R)-cyclopentylamino)-purin-9-yl]-5-(2-methyl-2H-tetrazol-5-yl)-tetrahydro-furan-3,4-diol Diformate]
- A1 EC50 as a ratio of that of NECA (adenosine 1 receptor): >11750.00
- A2a EC50 as a ratio of that of NECA (adenosine 2a receptor): 4.53
- A3 EC50 as a ratio of that of NECA (adenosine 3 receptor): >89

Compound: COc1ccc(CCNc2nc(N)c3ncn([C@@H]4O[C@H](c5nnn(C)n5)[C@@H](O)[C@H]4O)c3n2)cc1OC.O=CO [Example 38, (2R,3R,4S,5R)-2-{6-Amino-2-[2-(3,4-dimethoxy-phenyl)-ethylamino]-purin-9-yl}-5-(2-methyl-2H-tetrazol-5-yl)-tetrahydro-furan-3,4-diol Formate]
- A1 EC50 as a ratio of that of NECA (adenosine 1 receptor): 946
- A2a EC50 as a ratio of that of NECA (adenosine 2a receptor): 0.13
- A3 EC50 as a ratio of that of NECA (adenosine 3 receptor): >315

Compound: (2R,3R,4S,5R)-2-[2-(1-Benzyl-pyrrolidin-3-ylamino)-6-cyclopentylamino-purin-9-yl]-5-(2-ethyl-2H-tetrazol-5-yl)-tetrahydro-furan-3,4-diol bis(Formate) [Example 66]
- A1 EC50 as a ratio of that of NECA (adenosine 1 receptor): 48.60
- A2a EC50 as a ratio of that of NECA (adenosine 2a receptor): 1.53
- A3 EC50 as a ratio of that of NECA (adenosine 3 receptor): >158

Compound: Cn1cnc(CCNc2nc(NCCC3CCCCC3)c3ncn([C@@H]4O[C@H](c5nnn(C)n5)[C@@H](O)[C@H]4O)c3n2)c1.O=CO [Example 31, (2R,3R,4S,5R)-2-{6-(2-Cyclohexyl-ethylamino)-2-[2-(1-methyl-1H-imidazol-4-yl)-ethylamino]-purin-9-yl}-5-(2-methyl-2H-tetrazol-5-yl)-tetrahydro-furan-3,4-diol Formate]
- A1 EC50 as a ratio of that of NECA (adenosine 1 receptor): >=3680
- A2a EC50 as a ratio of that of NECA (adenosine 2a receptor): 0.49
- A3 EC50 as a ratio of that of NECA (adenosine 3 receptor): >100

Compound: CCn1nnc([C@H]2O[C@@H](n3cnc4c(NCC(c5ccccc5)c5ccccc5)nc(NCCN5CCCC5)nc43)[C@H](O)[C@@H]2O)n1.O=C(O)C(F)(F)F.O=C(O)C(F)(F)F.O=C(O)C(F)(F)F [Example 43, (2R,3R,4S,5R)-2-[6-(2,2-Diphenyl-ethylamino)-2-(2-pyrrolidin-1-yl-ethylamino)-purin-9-yl]-5-(2-ethyl-2H-tetrazol-5-yl)-tetrahydro-furan-3,4-diol tris(Trifluoroacetate)]
- A1 EC50 as a ratio of that of NECA (adenosine 1 receptor): 71.35
- A2a EC50 as a ratio of that of NECA (adenosine 2a receptor): 2.23
- A3 EC50 as a ratio of that of NECA (adenosine 3 receptor): >546

Compound: CC(C)n1nnc([C@H]2O[C@@H](n3cnc4c(NCCC(C)(C)C)nc(NCCc5cn(C)cn5)nc43)[C@H](O)[C@@H]2O)n1.O=CO [Example 56, (2R,3R,4S,5R)-2-{6-(3,3-Dimethyl-butylamino)-2-[2-(1-methyl-1H-imidazol-4-yl)-ethylamino]-purin-9-yl}-5-(2-isopropyl-2H-tetrazol-5-yl)-tetrahydro-furan-3,4-diol Formate]
- A1 EC50 as a ratio of that of NECA (adenosine 1 receptor): 570.90
- A2a EC50 as a ratio of that of NECA (adenosine 2a receptor): 4.90
- A3 EC50 as a ratio of that of NECA (adenosine 3 receptor): >297

Compound: Cn1cnc(CCNc2nc(NCCC(C)(C)C)c3ncn([C@@H]4O[C@H](c5nnn(C)n5)[C@@H](O)[C@H]4O)c3n2)c1.O=CO [Example 28, (2R,3R,4S,5R)-2-{6-(3,3-Dimethyl-butylamino)-2-[2-(1-methyl-1H-imidazol-4-yl)-ethylamino]-purin-9-yl}-5-(2-methyl-2H-tetrazol-5-yl)-tetrahydro-furan-3,4-diol Formate]
- A1 EC50 as a ratio of that of NECA (adenosine 1 receptor): >=1250
- A2a EC50 as a ratio of that of NECA (adenosine 2a receptor): 0.36
- A3 EC50 as a ratio of that of NECA (adenosine 3 receptor): >151

Compound: CC(C)n1nnc(C2OC(n3cnc4c(NC5CCCC5)nc(NCCN5CCCCC5)nc43)C(O)C2O)n1 [Example 80, (2R,3R,4S,5R)-2-[6-Cyclopentylamino-2-(2-piperidin-1-yl-ethylamino)-purin-9-yl]-yl)-5-(2-isopropyl-2H-tetrazol-5-yl)-tetrahydro-furan-3,4-diol bis(Formate)]
- A1 EC50 as a ratio of that of NECA (adenosine 1 receptor): 77.10
- A2a EC50 as a ratio of that of NECA (adenosine 2a receptor): 2.37
- A3 EC50 as a ratio of that of NECA (adenosine 3 receptor): >164
